In the C3SDB collision cross section collection:

Tests used:
[1] = instrument: DT, stepped-field
[2] = instrument: DT, single field, calibrated with Agilent tune mix (Agilent)

OC[C@H]1O[C@@H]2O[C@H]3[C@H](O)[C@@H](O)[C@@H](O[C@H]4[C@H](O)[C@@H](O)[C@@H](O[C@H]5[C@H](O)[C@@H](O)[C@@H](O[C@H]6[C@H](O)[C@@H](O)[C@@H](O[C@H]7[C@H](O)[C@@H](O)[C@@H](O[C@H]8[C@H](O)[C@@H](O)[C@@H](O[C@H]9[C@H](O)[C@@H](O)[C@@H](O[C@H]1[C@H](O)[C@H]2O)O[C@@H]9CO)O[C@@H]8CO)O[C@@H]7CO)O[C@@H]6CO)O[C@@H]5CO)O[C@@H]4CO)O[C@@H]3CO [Gamma-Cyclodextrin]
collision cross section (N2) ([1]; [M+Cs]+): 338.2 Å² | collision cross section (N2) ([1]; [M+H]+): 322.6 Å² | collision cross section (N2) ([1]; [M+K]+): 324.8 Å² | collision cross section (N2) ([1]; [M+Li]+): 317.7 Å² | collision cross section (N2) ([1]; [M+Na]+): 322.1 Å² | collision cross section (N2) ([1]; [M+Rb]+): 327.3 Å²

CCCCCCCCCCCCC=CC[C@@H](O)[C@H](CO[C@@H]1O[C@H](CO)[C@@H](O)C(O)C1O)NC(=O)CCCCCCCCCCCCCCC (some centres not stated) [GlcCer(34:1)]
collision cross section (N2) ([1]; [M+Na]+): 277.3 Å²

CCCCCCCCCCCCC=CC[C@@H](O)[C@H](CO[C@@H]1O[C@H](CO)[C@@H](O)C(O)C1O)NC(=O)CC=CCCCCCCCCCCCCCCCC (some centres not stated) [GlcCer(38:2)]
collision cross section (N2) ([1]; [M+Na]+): 291.4 Å²

CCCCCCCCCCCCCCCCCCCCCC(=O)N[C@@H](CO[C@@H]1O[C@H](CO)[C@@H](O)C(O)C1O)[C@H](O)CCCCCCCCCCCCCCC (some centres not stated) [GlcCer(40:0)]
collision cross section (N2) ([1]; [M+Na]+): 302.3 Å²

CCCCCCCCCCCCC=CC[C@@H](O)[C@H](CO[C@@H]1O[C@H](CO)[C@@H](O)C(O)C1O)NC(=O)CC=CCCCCCCCCCCCCCCCCCCC (some centres not stated) [GlcCer(41:2)]
collision cross section (N2) ([1]; [M+Na]+): 299.6 Å²

CCCCCCCCCCCCC=CC[C@@H](O)[C@H](CO[C@@H]1O[C@H](CO)[C@@H](O)C(O)C1O)NC(=O)CC=CCC=CCCCCCCCCCCCCCCCCC (some centres not stated) [GlcCer(42:3)]
collision cross section (N2) ([1]; [M+Na]+): 302.3 Å²

CCCCCCCCCCCCC=CC[C@@H](O)[C@H](CO[C@@H]1O[C@H](CO)[C@@H](O)C(O)C1O)NC(=O)CC=CCC=CCCCCCCCCCCCCCCCCCC (some centres not stated) [GlcCer(43:3)]
collision cross section (N2) ([1]; [M+Na]+): 306.1 Å²

CC(=O)NC1C(OC2C(O)C(CO)OC(OC(C(O)CO)C(O)C(O)C=O)C2O)OC(CO)C(O)C1O (configuration not stated) [HexNAc-(Hex)2]
collision cross section (N2) ([1]; [M+Na-H2O]+): 216.3 Å² | collision cross section (N2) ([1]; [M+Na]+): 220 Å²

CC(=O)NC1C(O)OC(CO)C(O)C1OC1OC(CO)C(O)C(O)C1O (configuration not stated) [HexNAc-Hex]
collision cross section (N2) ([1]; [M+K]+): 191.1 Å² | collision cross section (N2) ([1]; [M+Na-H2O]+): 184.3 Å² | collision cross section (N2) ([1]; [M+Na]+): 190.2 Å²

OC[C@H]1O[C@H](O[C@H]2[C@H](O)[C@@H](O)[C@@H](O[C@H]3[C@H](O)[C@@H](O)[C@@H](O[C@H]4[C@H](O)[C@@H](O)[C@@H](O[C@H]5[C@H](O)[C@@H](O)[C@@H](O[C@H]6[C@H](O)[C@@H](O)[C@@H](O[C@H]7[C@H](O)[C@@H](O)[C@@H](O)O[C@@H]7CO)O[C@@H]6CO)O[C@@H]5CO)O[C@@H]4CO)O[C@@H]3CO)O[C@@H]2CO)[C@H](O)[C@@H](O)[C@@H]1O [Maltoheptaose]
collision cross section (N2) ([1]; [M+H]+): 303.3 Å² | collision cross section (N2) ([1]; [M+K]+): 303.4 Å² | collision cross section (N2) ([1]; [M+Na]+): 303.1 Å²

OC[C@H]1O[C@H](O[C@H]2[C@H](O)[C@@H](O)[C@@H](O[C@H]3[C@H](O)[C@@H](O)[C@@H](O[C@H]4[C@H](O)[C@@H](O)C(O)O[C@@H]4CO)O[C@@H]3CO)O[C@@H]2CO)[C@H](O)[C@@H](O)[C@@H]1O (some centres not stated) [Maltotetraose]
collision cross section (N2) ([1]; [M+H]+): 238.3 Å² | collision cross section (N2) ([1]; [M+Na]+): 235.3 Å²

OC[C@H]1O[C@H](O[C@H]2[C@H](O)[C@@H](O)[C@@H](O[C@H]3[C@H](O)[C@@H](O)[C@@H](O)O[C@@H]3CO)O[C@@H]2CO)[C@H](O)[C@@H](O)[C@@H]1O [Maltotriose]
collision cross section (N2) ([1]; [M+H]+): 216.3 Å² | collision cross section (N2) ([1]; [M+K]+): 216.8 Å² | collision cross section (N2) ([1]; [M+Na]+): 212.8 Å²

CC/C=C\C/C=C\C/C=C\C/C=C\C/C=C\CCCC(=O)O[C@H](COC(=O)CCCC/C=C\C/C=C\C/C=C\C/C=C\CC)COP(=O)([O-])OCC[N+](C)(C)C [PC(38:9)]
collision cross section (N2) ([1]; [M+Na]+): 297.8 Å²

CCC=CCC=CCC=CCC=CCC=CCC=CCC(=O)OC[C@H](COP(=O)(O)OCC[N+](C)(C)C)OC(=O)CC=CCC=CCC=CCC=CCC=CCC=CCC [PC(42:12)]
collision cross section (N2) ([1]; [M+Na]+): 303.9 Å²

CCCCC=CCC=CCC=CCC(=O)OC[C@H](COP(=O)(O)OCCN)OC(=O)CC=CCC=CCC=CCCCC [PE(28:6)]
collision cross section (N2) ([1]; [M+K]+): 248.7 Å²

CCCCCCCCC/C=C\CCCCCCCC(=O)O[C@H](COC(=O)CCCCCCCCCCCC)COP(=O)(O)OCCN [PE(32:1)]
collision cross section (N2) ([2]; [M+H]+): 267.2 Å² | collision cross section (N2) ([2]; [M+Na]+): 272 Å² | collision cross section (N2) ([2]; [M-H]-): 256.6 Å² | collision cross section (N2) ([1]; [M+Na]+): 274.1 Å²

CCCC/C=C\CCCCCCCC(=O)OC[C@H](COP(=O)(O)OCCN)OC(=O)CCCCCCCCC/C=C\C/C=C\CCCCC [PE(34:3)]
collision cross section (N2) ([2]; [M+H]+): 270.9 Å² | collision cross section (N2) ([2]; [M-H]-): 260.2 Å² | collision cross section (N2) ([1]; [M+Na]+): 276.1 Å²

CCCC/C=C\CCCCCCCC(=O)OC[C@H](COP(=O)(O)OCCN)OC(=O)CCCCCC/C=C\C/C=C\C/C=C\CCCCC [PE(34:4)]
collision cross section (N2) ([1]; [M+Na]+): 273.6 Å²

CCCCC/C=C\C/C=C\C/C=C\CCCCC(=O)OC[C@H](COP(=O)(O)OCCN)OC(=O)CCCCCCC/C=C\CCCCCCCCC [PE(37:4)]
collision cross section (N2) ([1]; [M+K]+): 284.7 Å²

CCCCC/C=C\C/C=C\C/C=C\C/C=C\CCCC(=O)O[C@H](COC(=O)CCCC/C=C\C/C=C\C/C=C\CCCCC)COP(=O)(O)OCCN [PE(38:7)]
collision cross section (N2) ([1]; [M+K]+): 287 Å² | collision cross section (N2) ([1]; [M+Na]+): 283.7 Å²

CCCCC/C=C\C/C=C\CCCCCCCC(=O)O[C@H](COCCCCCCCCCCCCCCCCCC)COP(=O)(O)OCCN [PE(o36:2)]
collision cross section (N2) ([1]; [M+Na]+): 287.3 Å²

CC/C=C\C/C=C\C/C=C\C/C=C\CCCCC(=O)OC[C@H](COP(=O)(O)OC[C@H](N)C(=O)O)OC(=O)CCCCC/C=C\C/C=C\C/C=C\C/C=C\CCCCC [PS(40:8)]
collision cross section (N2) ([1]; [M+Na]+): 293.6 Å²

CCCCC/C=C\C/C=C\C/C=C\C/C=C\CCCCCC(=O)OC[C@H](COP(=O)(O)OC[C@H](N)C(=O)O)OC(=O)CCC/C=C\C/C=C\C/C=C\C/C=C\CCCCC [PS(42:8)]
collision cross section (N2) ([1]; [M+Na]+): 301.3 Å²

CC/C=C\C/C=C\C/C=C\C/C=C\C/C=C\C/C=C\CCC(=O)O[C@H](COC(=O)CCC/C=C\C/C=C\C/C=C\C/C=C\CCCCC)COP(=O)(O)OC[C@H](N)C(=O)O [PS(42:10)]
collision cross section (N2) ([1]; [M+Na]+): 297.1 Å²

CC/C=C\C/C=C\C/C=C\C/C=C\C/C=C\C/C=C\CCC(=O)OC[C@H](COP(=O)(O)OC[C@H](N)C(=O)O)OC(=O)CCC/C=C\C/C=C\C/C=C\C/C=C\C/C=C\CC [PS(42:11)]
collision cross section (N2) ([1]; [M+Na]+): 294.2 Å²

CC=CCC=CCC=CCC=CCC=CCC=CCC=CCC=CCC(=O)OC[C@H](COP(=O)(O)OC[C@H](N)C(=O)O)OC(=O)CC=CCC=CCC=CCC=CCC=CCC=CCC=CCC=CC [PS(52:16)]
collision cross section (N2) ([1]; [M+Na]+): 322.2 Å²

NCCCC[C@H](NC(=O)[C@H](CC(N)=O)NC(=O)[C@H](CCC(=O)O)NC(=O)[C@@H](N)CCC(N)=O)C(=O)O [QENK]
collision cross section (N2) ([1]; [M+H]+): 219 Å²

N=C(N)NCCC[C@H](NC(=O)CNC(=O)[C@H](CC(=O)O)NC(=O)[C@@H](N)CO)C(=O)NCC(=O)O [SDGRG]
collision cross section (N2) ([1]; [M+H]+): 204.6 Å² | collision cross section (N2) ([1]; [M+K]+): 205.4 Å² | collision cross section (N2) ([1]; [M+Na]+): 203.5 Å²

CCCCCCCCCCCCCCCCCCCCCC(=O)N[C@@H](COP(=O)([O-])OCC[N+](C)(C)C)[C@H](O)CCCCCCCCCCCCCCC [SM(40:0)]
collision cross section (N2) ([1]; [M+Na]+): 305.7 Å²

CCCCCCCCCCCCC=CC[C@@H](O)[C@H](COP(=O)([O-])OCC[N+](C)(C)C)NC(=O)CC=CCCCCCCCCCCCCCCCCCCC [SM(41:2)]
collision cross section (N2) ([1]; [M+Na]+): 303.9 Å²

CCCCCCCCCCCCC=CC[C@@H](O)[C@H](COP(=O)([O-])OCC[N+](C)(C)C)NC(=O)CC=CCCCCCCCCCCCCCCCCCCCCC [SM(43:2)]
collision cross section (N2) ([1]; [M+Na]+): 311.5 Å²

CCCCCCCCCCCCC=CC[C@@H](O)[C@H](COP(=O)([O-])OCC[N+](C)(C)C)NC(=O)CC=CCC=CCCCCCCCCCCCCCCCCCC [SM(43:3)]
collision cross section (N2) ([1]; [M+Na]+): 309.6 Å²

OC[C@@H](O)[C@@H](O)[C@H](O)[C@@H](O)CO [Sorbitol]
collision cross section (N2) ([1]; [M+Na]+): 139.4 Å²

CCCC[N+](CCCC)(CCCC)CCCC [TAA4]
collision cross section (N2) ([1]; [M]+): 166.6 Å²

CCCCC[N+](CCCCC)(CCCCC)CCCCC [TAA5]
collision cross section (N2) ([1]; [M]+): 190.1 Å²

CCCCCCCCCCCC[N+](CCCCCCCCCCCC)(CCCCCCCCCCCC)CCCCCCCCCCCC [TAA12]
collision cross section (N2) ([1]; [M]+): 319 Å²

CC(C)[C@H](N)C(=O)N[C@@H](CCC(=O)O)C(=O)N[C@@H](CC(=O)O)C(=O)N[C@H](C(=O)N[C@@H](CC(=O)O)C(=O)N[C@@H](CCCNC(=N)N)C(=O)O)C(C)C [VEDVDR]
collision cross section (N2) ([1]; [M+H]+): 256.6 Å²

CCC(C)[C@H](NC(=O)CNC(=O)[C@H](CC(C)C)NC(=O)[C@@H](N)C(C)C)C(=O)N[C@@H](CC(=O)O)C(=O)NCC(=O)NCC(=O)N[C@@H](CCC(=O)O)C(=O)NCC(=O)N[C@@H](CCCCN)C(=O)O (some centres not stated) [VLGIDGGEGK]
collision cross section (N2) ([1]; [M+H]+): 291.2 Å²

CSCC[C@H](NC(=O)[C@@H](N)Cc1c[nH]c2ccccc12)C(=O)NCC(=O)N[C@@H](CCCCN)C(=O)O [WMGK]
collision cross section (N2) ([1]; [M+H]+): 220.1 Å²

CCC(C)[C@H](NC(=O)[C@H](CCC(=O)O)NC(=O)[C@H](Cc1ccc(O)cc1)NC(=O)[C@H](CC(C)C)NC(=O)[C@@H](N)Cc1ccc(O)cc1)C(=O)N[C@@H](C)C(=O)N[C@@H](CCCNC(=N)N)C(=O)O (some centres not stated) [YLYEIAR]
collision cross section (N2) ([1]; [M+H]+): 305 Å²

CC(C)[C@H](NC(=O)[C@@H](N)Cc1ccc(O)cc1)C(=O)N[C@@H](CCCNC(=N)N)C(=O)O [YVR]
collision cross section (N2) ([1]; [M+H]+): 207 Å²
